No end group written: not given here.
Experiments:
NPFF-R1 = target: T1, NPFF-R1 (Homo sapiens, UniProt Q9GZQ6); assay: Competitive and saturation binding, [^125I]-1DMe, membranes of CHO-K1 cells with NPFF-R1
T1 construct: host or cells: CHO-K1 (isolated membranes)
Method: (§1) Experiments were carried out in duplicate at least three times, and Ki was calculated using the Cheng-Prusoff equation.
(§2) Data were analyzed by GraphPad Software (San Diego, CA, USA) and are presented as the means ± SEM. The saturation and competitive binding experiments were analyzed according to [46] using the Cheng-Prusoff equation [33]. The competitive binding curves were plotted compared to the best fit for single-binding site models, and half maximal inhibitory concentration (IC50) values were obtained from nonlinear regression analysis. From saturation binding experiments, the dissociation constant (Kd) and number of binding sites/cell (Bmax) were calculated. Inhibition constants (Ki) were calculated from IC50 values, Kd and the concentration of radioligands.

Y2 = target: T2, Y2 (Homo sapiens, UniProt P49146); assay: Competitive and saturation binding, [^125I]-PYY, U2OS cells with Y2
T2 construct: host or cells: U2OS
T2 sequence (P49146 1-381): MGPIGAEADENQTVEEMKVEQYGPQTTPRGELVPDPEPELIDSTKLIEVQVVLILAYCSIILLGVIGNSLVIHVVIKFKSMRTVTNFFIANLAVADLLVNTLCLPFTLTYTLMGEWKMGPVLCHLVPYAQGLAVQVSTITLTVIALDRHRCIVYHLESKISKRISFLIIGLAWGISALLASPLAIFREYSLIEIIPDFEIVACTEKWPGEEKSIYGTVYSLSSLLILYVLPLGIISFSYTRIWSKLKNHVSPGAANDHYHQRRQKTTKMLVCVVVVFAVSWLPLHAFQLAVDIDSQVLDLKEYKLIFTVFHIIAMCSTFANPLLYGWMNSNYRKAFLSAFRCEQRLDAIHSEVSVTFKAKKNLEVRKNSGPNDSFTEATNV
Method: (§3) Competition binding experiments were performed according to [45]. […] Binding experiments using U2OS cells were optimized and performed in assay buffer (50 mM Tris-Cl pH 7.4, 118 mM NaCl, 5 mM MgCl2, 4.7 mM KCl, 0.1% BSA) for cells stably expressing GHSR and (25 mM HEPES, 120 mM NaCl, 5 mM MgCl2, 4.7 mM KCl, 1 mM CaCl2, 0.5% BSA, 2 g/L glucose) for cells containing receptors Y1, Y2 and Y5. […] Cells were incubated for 60 min at room temperature (RT).
as §1, §2

Y5 = target: T3, Y5 (Homo sapiens, UniProt Q15761); assay: Competitive and saturation binding, [^125I]-PYY, U2OS cells with Y5
T3 construct: host or cells: U2OS
T3 sequence (Q15761 1-445): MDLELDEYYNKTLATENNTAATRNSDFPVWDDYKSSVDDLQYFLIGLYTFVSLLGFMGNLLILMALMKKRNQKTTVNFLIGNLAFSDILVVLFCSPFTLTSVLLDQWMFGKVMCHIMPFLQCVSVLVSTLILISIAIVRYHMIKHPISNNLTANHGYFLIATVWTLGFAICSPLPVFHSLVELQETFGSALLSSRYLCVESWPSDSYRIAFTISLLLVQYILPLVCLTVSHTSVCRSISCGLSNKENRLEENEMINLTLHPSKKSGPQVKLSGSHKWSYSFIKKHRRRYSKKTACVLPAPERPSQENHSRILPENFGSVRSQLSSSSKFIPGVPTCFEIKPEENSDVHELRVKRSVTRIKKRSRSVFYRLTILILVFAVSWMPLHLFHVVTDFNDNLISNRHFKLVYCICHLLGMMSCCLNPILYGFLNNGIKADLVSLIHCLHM
Method: as §3, §1, §2

GHSR [1] = target: T4, GHSR (Homo sapiens, UniProt Q92847); assay: Competitive and saturation binding, [^125I]-ghrelin, U2OS cells with GHSR
T4 construct: host or cells: U2OS
Method: as §3, §1, §2

GPR10 [2] = target: T5, GPR10 (Homo sapiens, UniProt P49683); assay: Intracellular Ca^2+ mobilization, Fura-2, CHO-K1 cells expressing GPR10; assay type: cell-based; details: Fura 2 dye; peptides 10^−12 to 10^−5 M; repeated two times in duplicates
T5 construct: host or cells: CHO-K1
T5 sequence (P49683 1-370): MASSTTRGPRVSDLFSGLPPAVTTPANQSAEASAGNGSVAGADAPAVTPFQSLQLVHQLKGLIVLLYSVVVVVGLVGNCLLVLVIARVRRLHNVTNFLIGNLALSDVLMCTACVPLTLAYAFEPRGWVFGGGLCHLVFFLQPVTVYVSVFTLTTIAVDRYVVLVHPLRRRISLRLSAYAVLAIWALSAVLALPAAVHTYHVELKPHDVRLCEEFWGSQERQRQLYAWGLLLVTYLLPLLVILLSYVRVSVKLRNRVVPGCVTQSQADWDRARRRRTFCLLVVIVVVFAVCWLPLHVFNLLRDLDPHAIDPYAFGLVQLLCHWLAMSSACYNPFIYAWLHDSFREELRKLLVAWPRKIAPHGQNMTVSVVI
Method: Measuring the intracellular Ca^2+ level in CHO-K1 cells containing GRP10 was performed using the calcium-sensitive dye Fura-2 according to the manufacturer’s protocol (Molecular Devices, Sunnyvale, CA, USA). The day before the experiment, cells were seeded at 40,000 cells/well in 96-well plates in growth media and kept at 37 °C in an incubator with 5% CO2 overnight. Peptides were tested at concentrations from 10^−12 to 10^−5 M. Fura-2 fluorescent dye was detected using a FlexStation 3 fluorometric plate reader (Molecular Devices), and excitation was measured at 340 nm and 380 nm and emission at 510 nm.
Ca^2+ release assay data are shown as the percentage of maximal response, and the results were analyzed by nonlinear regression as log agonist versus response using GraphPad software. Data are representative of at least three experiments, each performed in duplicate.

KOR = target: T6, KOR (Homo sapiens, UniProt P41145); assay: cell-based
T6 construct: host or cells: CHO-K1

DOR = target: T7, DOR (Homo sapiens, UniProt P41143); assay: Beta-lactamase reporter gene assay (FRET), DOR; assay type: cell-based; details: β-lactamase assay, agonist mode, U2OS cells; mean ± SEM, 2–3 independent experiments in duplicates
T7 construct: host or cells: U2OS

MOR = target: T8, MOR (Homo sapiens, UniProt P35372); assay: Beta-lactamase reporter gene assay (FRET), MOR; assay type: cell-based
T8 construct: host or cells: U2OS

ORL-1 = target: T9, ORL-1 (Homo sapiens, UniProt P41146); assay: Beta-lactamase reporter gene assay (FRET), ORL-1; assay type: cell-based; details: β-lactamase assay, agonist mode, U2OS cells; mean ± SEM, 2–3 independent experiments in duplicates
T9 construct: host or cells: U2OS

GPR10 [3] = target: T5, GPR10; assay: Competitive binding, [^125I]-PrRP31, CHO-K1 cells expressing GPR10
GPR10 [4] = target: T5, GPR10; assay: Beta-lactamase reporter gene assay (FRET), GPR10; assay type: cell-based; details: β-lactamase assay, agonist mode, CHO-K1 cells; mean ± SEM, 2–3 independent experiments in duplicates
GHSR [5] = target: T4, GHSR; assay: Beta-lactamase reporter gene assay (FRET), GHSR; assay type: cell-based

T1 sequence (Q9GZQ6 whole entry): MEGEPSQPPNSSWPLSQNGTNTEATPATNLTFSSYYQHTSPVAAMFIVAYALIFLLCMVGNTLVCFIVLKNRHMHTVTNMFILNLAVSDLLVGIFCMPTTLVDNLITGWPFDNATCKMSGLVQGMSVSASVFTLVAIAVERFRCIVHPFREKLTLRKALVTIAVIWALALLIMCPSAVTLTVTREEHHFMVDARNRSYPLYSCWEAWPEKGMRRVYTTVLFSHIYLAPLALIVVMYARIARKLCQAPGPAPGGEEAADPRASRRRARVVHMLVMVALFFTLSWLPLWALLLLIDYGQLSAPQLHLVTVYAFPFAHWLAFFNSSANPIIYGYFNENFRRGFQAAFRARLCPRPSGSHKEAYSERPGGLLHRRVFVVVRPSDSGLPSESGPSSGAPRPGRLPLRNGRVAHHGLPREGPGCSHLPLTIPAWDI
T4 sequence (Q92847 whole entry): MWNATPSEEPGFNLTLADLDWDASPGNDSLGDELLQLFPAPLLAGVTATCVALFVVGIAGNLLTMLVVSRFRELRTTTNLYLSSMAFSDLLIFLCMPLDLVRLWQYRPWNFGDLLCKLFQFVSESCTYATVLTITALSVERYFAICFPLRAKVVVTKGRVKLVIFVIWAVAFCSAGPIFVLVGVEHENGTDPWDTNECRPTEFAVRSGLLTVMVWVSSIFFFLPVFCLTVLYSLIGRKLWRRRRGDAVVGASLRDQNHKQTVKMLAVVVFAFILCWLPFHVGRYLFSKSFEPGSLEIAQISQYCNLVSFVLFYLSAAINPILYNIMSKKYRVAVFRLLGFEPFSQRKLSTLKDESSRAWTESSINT
T9 sequence (P41146 whole entry): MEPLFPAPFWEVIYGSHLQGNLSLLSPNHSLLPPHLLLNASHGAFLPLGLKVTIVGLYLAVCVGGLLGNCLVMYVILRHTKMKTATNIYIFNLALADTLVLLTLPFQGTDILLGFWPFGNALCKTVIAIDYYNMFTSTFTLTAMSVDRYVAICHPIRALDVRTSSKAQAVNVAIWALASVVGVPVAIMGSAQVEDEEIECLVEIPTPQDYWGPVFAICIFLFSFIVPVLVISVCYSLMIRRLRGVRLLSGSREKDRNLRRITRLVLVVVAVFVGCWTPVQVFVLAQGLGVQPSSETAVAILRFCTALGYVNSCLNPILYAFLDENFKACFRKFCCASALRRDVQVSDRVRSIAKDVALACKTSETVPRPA
T8 sequence (P35372 whole entry): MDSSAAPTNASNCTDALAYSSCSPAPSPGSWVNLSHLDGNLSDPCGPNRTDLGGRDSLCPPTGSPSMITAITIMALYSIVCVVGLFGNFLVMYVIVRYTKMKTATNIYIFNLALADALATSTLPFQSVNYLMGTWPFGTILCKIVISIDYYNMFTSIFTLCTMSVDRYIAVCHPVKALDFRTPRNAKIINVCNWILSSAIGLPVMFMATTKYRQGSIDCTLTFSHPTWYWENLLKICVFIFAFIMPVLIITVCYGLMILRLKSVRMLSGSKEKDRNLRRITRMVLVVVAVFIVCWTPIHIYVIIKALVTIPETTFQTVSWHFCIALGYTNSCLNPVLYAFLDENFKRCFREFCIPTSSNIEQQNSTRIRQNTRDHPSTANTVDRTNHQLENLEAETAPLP
T6 sequence (P41145 whole entry): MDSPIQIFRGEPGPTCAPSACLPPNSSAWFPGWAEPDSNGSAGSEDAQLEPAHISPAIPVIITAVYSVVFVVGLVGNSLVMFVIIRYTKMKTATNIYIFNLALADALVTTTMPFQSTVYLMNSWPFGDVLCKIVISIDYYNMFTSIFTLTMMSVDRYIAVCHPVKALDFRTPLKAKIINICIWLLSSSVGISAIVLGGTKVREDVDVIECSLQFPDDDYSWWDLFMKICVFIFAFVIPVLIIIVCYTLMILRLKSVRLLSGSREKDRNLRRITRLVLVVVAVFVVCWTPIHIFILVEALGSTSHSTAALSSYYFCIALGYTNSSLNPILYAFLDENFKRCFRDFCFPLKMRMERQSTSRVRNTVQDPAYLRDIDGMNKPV
T7 sequence (P41143 whole entry): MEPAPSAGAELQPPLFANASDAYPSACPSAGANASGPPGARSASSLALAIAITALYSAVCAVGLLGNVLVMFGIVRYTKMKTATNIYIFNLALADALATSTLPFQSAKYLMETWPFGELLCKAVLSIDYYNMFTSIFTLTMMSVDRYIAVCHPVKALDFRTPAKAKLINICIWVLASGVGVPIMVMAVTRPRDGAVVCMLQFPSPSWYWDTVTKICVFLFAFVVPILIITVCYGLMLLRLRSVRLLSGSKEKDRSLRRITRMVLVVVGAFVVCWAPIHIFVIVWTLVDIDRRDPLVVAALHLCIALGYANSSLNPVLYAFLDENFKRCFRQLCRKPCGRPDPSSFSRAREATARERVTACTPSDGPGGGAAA

CCCCCCCCCCCCCCCC(=O)N[C@@H](CO)C(=O)N[C@@H](CCCNC(=N)N)C(=O)N[C@H](C(=O)N[C@@H](Cc1c[nH]cn1)C(=O)N[C@@H](CCCNC(=N)N)C(=O)N[C@@H](Cc1c[nH]cn1)C(=O)N[C@@H](CO)C(=O)N[C@@H](CCSC)C(=O)N[C@@H](CCC(=O)O)C(=O)N[C@H](C(=O)N[C@@H](CCCNC(=N)N)C(=O)N[C@H](C(=O)N1CCC[C@H]1C(=O)N[C@@H](CC(=O)O)C(=O)N[C@H](C(=O)N[C@@H](CC(N)=O)C(=O)N1CCC[C@H]1C(=O)N[C@@H](C)C(=O)N[C@@H](Cc1c[nH]c2ccccc12)C(=O)N[C@@H](Cc1ccc(O)cc1)C(=O)N[C@@H](C)C(=O)N[C@@H](CO)C(=O)N[C@@H](CCCNC(=N)N)C(=O)NCC(=O)N[C@H](C(=O)N[C@@H](CCCNC(=N)N)C(=O)N1CCC[C@H]1C(=O)N[C@H](C(=O)NCC(=O)N[C@@H](CCCNC(=N)N)C(=O)N[C@@H](Cc1ccccc1)C(N)=O)C(C)C)[C@@H](C)CC)[C@@H](C)CC)[C@@H](C)O)[C@@H](C)CC)[C@@H](C)O [Palm-PrRP31]
Ki (NPFF-R1): 0.78 ± 0.11 nM
Ki (Y2): > 10000 nM
Ki (Y5): 32.6 ± 6.16 nM
Ki (GHSR [1]): 160 ± 16 nM
Ca^2+ mobilization in CHO-K1 cells expressing GPR10 (GPR10 [2]): stimulated Ca^2+ mobilization
EC50 (KOR): > 10000 nM
EC50 (DOR): > 10000 nM
EC50 (MOR): > 10000 nM
EC50 (ORL-1): > 10000 nM

SRAHQHSMETRTPDINPAWYTGRGIRPVGRF-NH2 [PrRP31, prolactin-releasing peptide 31, reference compound]
Ki (GPR10 [3]): 4.58 ± 0.66 nM
Ki (NPFF-R1): 40.4 ± 4.2 nM
Ki (Y2): > 10000 nM
Ki (Y5): 2860 ± 43 nM
Ki (GHSR [1]): > 10000 nM
EC50 (GPR10 [4]): 0.53 ± 0.0705 nM
EC50 (GHSR [5]): > 10000 nM
EC50 (KOR): > 10000 nM
EC50 (DOR): > 10000 nM
EC50 (MOR): > 10000 nM
EC50 (ORL-1): > 10000 nM

— publication PMC8396344, “Palmitoylation of Prolactin-Releasing Peptide Increased Affinity for and Activation of the GPR10, NPFF-R2 and NPFF-R1 Receptors: In Vitro Study” (International Journal of Molecular Sciences, 2021)
